We go through two molecules from patent US11230717B2, “Plants having increased tolerance to herbicides” (BASF SE, priority 2013, dated 2022).

The test system of one test is Picrophilus HPPD. Put plainly: HPPD activity assay, in vitro characterization. It is filed as biochemical, Picrophilus torridus. The settings on record: normalized to Hordeum SEQ ID NO:2. The protocol:
(§1) HPPD produces homogentisic acid and CO2 from 4-hydroxyphenylpyruvate (4-HPP) and O2. The activity assay for HPPD is based on the analysis of homogentisic acid by reversed phase HPLC.
(§2) The assay mixture can contain 150 mM potassium phosphate buffer pH 7.0, 50 mM L-ascorbic acid, 100 μM Catalase (Sigma-Aldrich), 1 μM FeSO4 and 0.2 units of purified HPPD enzyme in a total volume of 505 μl. 1 unit is defined as the amount of enzyme that is required to produce 1 nmol of HGA per minute at 20° C.
(§3) After a preincubation of 30 min the reaction is started by adding 4-HPP to a final concentration of 0.05 mM. The reaction is allowed to proceed for 45 min at room temperature. The reaction is stopped by the addition of 50 μl of 4.5 M phosphoric acid. The sample is filtered using a […] pore size PVDF filtration device.
(§4) 5 μl of the cleared sample is analyzed on an UPLC HSS T3 column (particle size 1.8 μm, dimensions 2,1×50 mm; Waters) by isocratic elution using 90% 20 mM NaH2PO4 pH 2.2, 10% methanol (v/v).
(§5) HGA is detected electrochemically at 750 mV (mode: DC; polarity: positive) and quantified by integrating peak areas (Empower software; Waters).
Inhibitors are dissolved in DMSO (dimethylsulfoxide) to a concentration of 0.5 mM. From this stock solution serial five-fold dilutions are prepared in DMSO, which are used in the assay. […] IC50 values are calculated using non-linear regression. […]

Test [1] has as its target T1, Hordeum HPPD variant L320N (Hordeum vulgare, UniProt O48604, A164G/L320N/R146V/R147D/R148G).
T1 construct: His (N); made in house; host or cells: E. coli BL21 (DE3)
Put plainly: HPPD activity assay, in vitro characterization of HPPD mutants. The format is biochemical. The settings on record: normalized to wild-type. The protocol:
as §1, §2, §3, §4, §5
(§6) Inhibitors are dissolved in DMSO (dimethylsulfoxide) to a concentration of 0.5 mM. From this stock solution serial five-fold dilutions are prepared in DMSO, which are used in the assay. The respective inhibitor solution accounts for 1% of the assay volume. […] Activities are normalized by setting the uninhibited enzyme activity to 100%. IC50 values are calculated using non-linear regression.
(§7) Purified, mutant HPPD enzymes are obtained by the methods described above. Dose response and kinetic measurements are carried out using the described HPPD activity assay. Apparent michaelis constants (Km) and maximal reaction velocities (Vmax) are calculated by non-linear regression with the software GraphPad Prism 5 (GraphPad Software, La Jolla, USA) using a substrate inhibition model. […] Weighted means (by standard error) of Km and IC50 values are calculated from at least three independent experiments.
(§8) Field performance of the optimized HPPD enzyme, which is used as a herbicide tolerance trait may depend not only on its lack of sensitivity towards HPPD inhibiting herbicides but also on its activity. To assess the potential performance of a herbicide tolerance trait a tolerance index (TI) is calculated using the following formula: […]

Test [2] deals with T2, Hordeum HPPD variant L353M, P321R, L320Q (Hordeum vulgare, UniProt O48604, L320Q/L353M/P321R).
T2 construct: His (N); made in house; host or cells: E. coli BL21 (DE3)
Described as above. It is filed as biochemical. The settings on record: normalized to wild-type. How it is done: as §1, §2, §3, §4, §5, §6, §7, §8

The next test has as its target T3, Arabidopsis HPPD (Arabidopsis thaliana, UniProt P93836).
T3 construct: His6 (N); made in house; host or cells: E. coli BL21 (DE3)
T3 sequence (P93836 1-445): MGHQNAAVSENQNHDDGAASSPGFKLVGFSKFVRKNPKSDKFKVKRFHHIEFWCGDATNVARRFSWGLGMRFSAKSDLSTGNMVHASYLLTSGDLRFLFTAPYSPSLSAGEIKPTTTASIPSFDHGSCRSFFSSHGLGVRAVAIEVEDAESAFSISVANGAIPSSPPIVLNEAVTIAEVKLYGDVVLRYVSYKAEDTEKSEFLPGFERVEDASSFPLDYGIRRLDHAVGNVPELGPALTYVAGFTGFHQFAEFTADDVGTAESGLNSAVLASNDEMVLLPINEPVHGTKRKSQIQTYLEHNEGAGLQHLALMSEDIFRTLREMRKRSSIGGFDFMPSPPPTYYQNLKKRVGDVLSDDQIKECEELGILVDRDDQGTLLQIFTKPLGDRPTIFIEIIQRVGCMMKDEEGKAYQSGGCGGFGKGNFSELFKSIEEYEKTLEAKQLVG
In words: HPPD activity assay (homogentisic acid by HPLC), in vitro characterization. The format is biochemical. Conditions: for Normalized tolerance index (TI): Arabidopsis HPPD Wildtype (SEQ ID: 53), reference. How it is done: as §1, §2, §3, §4, §5, §6
Using methods which are described in the above examples or well known in the art, purified, recombinant wildtype HPPD enzymes are characterized with respect to their kinetic properties and sensitivity towards HPPD inhibiting herbicides. Apparent michaelis constants (Km) and maximal reaction velocities (Vmax) are calculated by non-linear regression with the software GraphPad Prism 5 (GraphPad Software, La Jolla, USA) using a substrate inhibition model. […] Weighted means (by standard error) of Km and IC50 values are calculated from at least three independent experiments. […] To assess the potential performance of a herbicide tolerance trait a tolerance index (TI) is calculated using the following formula: […]

The target in test [3] is T4, Arabidopsis HPPD variant F381I (Arabidopsis thaliana, UniProt P93836, F381I).
T4 construct: His6 (N); made in house; host or cells: E. coli BL21 (DE3)
In words: HPPD activity assay, in vitro characterization of HPPD mutants. It is filed as biochemical. The settings on record: normalized to wildtype. How it is done:
as §1, §2, §3, §4, §5, §6, §7, §8

T2 sequence (O48604 whole entry R146V/R147D/R148G/A164G/L320Q/P321R/L353M): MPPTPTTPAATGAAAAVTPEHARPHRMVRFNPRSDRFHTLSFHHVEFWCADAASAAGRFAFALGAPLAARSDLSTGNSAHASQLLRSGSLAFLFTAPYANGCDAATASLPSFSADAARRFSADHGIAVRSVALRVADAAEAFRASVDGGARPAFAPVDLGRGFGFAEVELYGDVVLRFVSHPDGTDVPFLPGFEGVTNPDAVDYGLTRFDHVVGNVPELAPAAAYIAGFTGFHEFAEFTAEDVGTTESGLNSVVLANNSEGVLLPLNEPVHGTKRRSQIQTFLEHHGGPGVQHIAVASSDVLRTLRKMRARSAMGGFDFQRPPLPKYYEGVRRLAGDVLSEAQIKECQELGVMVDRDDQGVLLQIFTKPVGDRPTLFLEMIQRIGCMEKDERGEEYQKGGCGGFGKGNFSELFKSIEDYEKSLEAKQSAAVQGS
T1 sequence (O48604 whole entry R146V/R147D/R148G/A164G/L320N): as the sequence (O48604 whole entry R146V/R147D/R148G/A164G/L320Q/P321R/L353M) above, with Q320N, R321P, M353L counted along it
T4 sequence (P93836 whole entry F381I): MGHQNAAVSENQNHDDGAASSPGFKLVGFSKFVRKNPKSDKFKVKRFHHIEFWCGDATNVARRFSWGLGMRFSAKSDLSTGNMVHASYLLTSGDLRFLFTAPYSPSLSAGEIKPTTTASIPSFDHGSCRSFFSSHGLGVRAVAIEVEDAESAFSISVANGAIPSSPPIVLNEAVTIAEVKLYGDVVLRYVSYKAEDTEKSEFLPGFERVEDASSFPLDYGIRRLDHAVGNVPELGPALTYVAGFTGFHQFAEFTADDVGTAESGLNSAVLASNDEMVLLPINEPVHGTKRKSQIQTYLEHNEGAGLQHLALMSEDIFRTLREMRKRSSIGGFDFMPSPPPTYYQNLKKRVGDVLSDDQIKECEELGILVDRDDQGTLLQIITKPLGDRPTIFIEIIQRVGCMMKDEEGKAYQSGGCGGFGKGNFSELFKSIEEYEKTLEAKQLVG

In the case of `Cn1nnnc1NC(=O)c1c(F)cc(Cl)c(S(C)(=O)=O)c1Cl` [Inhibitor 1, 2,4-dichloro-6-fluoro-3-methylsulfonyl-N-(1-methyltetrazol-5-yl)benzamide], the “Normalized tolerance index (TI)” value in the test with Picrophilus HPPD was determined as 2.1; in test [1], 5.2; in test [2], 2.5; on Arabidopsis HPPD it was 1. Besides, at Arabidopsis HPPD, the affinity corresponds to a Ki of 15 nM. The “TI (tolerance index)” value on Arabidopsis HPPD (Arabidopsis HPPD, not normalized) is reported as 15E−3.

In the case of `CSc1c(Cl)cc(F)c(C(=O)Nc2ncnn2C)c1Cl` [Inhibitor 3, 2,4-dichloro-6-fluoro-3-methylsulfanyl-N-(2-methyl-1,2,4-triazol-3-yl)benzamide], the “Normalized tolerance index (TI)” value in the test with Picrophilus HPPD worked out at 0.7; in test [3], 0.1; on Arabidopsis HPPD, 1.

For orientation: Ki means the dissociation constant of the complex between target and ligand, obtained from inhibition or displacement. Higher therefore signals weaker binding.
